Reference: patent US6372194B1, “MRI contrast media recognizing minor environmental changes” (Nihon Schering K.K., priority 1997, dated 2002)

Assay: Proton relaxing times (T1, T2) and proton relaxivity, Minispec 20 MHz, 40° C.
Type: physicochemical
Conditions: for T1 relaxing time / T2 relaxing time: 20 MHz, 40° C.
Description: The proton relativity of poly[Gd(DTPA-PDA)2]35 and poly[Gd(DTPA-PDA)5]14 obtained in Example 1 was compared with that of conventional MRI contrast medium. As the conventional MRI contrast medium, used was Gd-DTPA (Magnevist). The proton relaxivity was determined by using Minispec (NMS 120/125/10VTS, manufactured by Japan Bruker) at frequency at 20 MHz and temperature at 40° C. T1 was determined using an IR (inversion recovery) method under the conditions of initial τ of 2 ms, τ magnification of 1.7 and determination points of 20. T2 was determined using a CPMG (Carr-Purcell-Meiboon-Gill) method under the conditions of τ of 1 ms and determination points of 50.
Respective proton relaxing times (T1 and T2) are shown in Table 1, and the proton relaxivity (R1 and R2) calculated from said proton relaxing time are shown in Table 2.

## O=C([O-])CN(CCN(CC(=O)[O-])CC(=O)O)CCN(CC(=O)[O-])CC(=O)O.[Gd+3] [Gd-DTPA]
Gd concentration 0.1 mM
  T1 relaxing time: 1503 ms
  T2 relaxing time: 1339 ms
Gd concentration 1 mM
  T1 relaxing time: 247 ms
  T2 relaxing time: 220 ms
Gd concentration 5 mM
  T1 relaxing time: 53 ms
  T2 relaxing time: 47 ms
Gd concentration 10 mM
  T1 relaxing time: 26 ms
  T2 relaxing time: 24 ms
Calculated from proton relaxing time
  proton relaxivity R1: 3.81 1 mmol^−1 sec^−1
